Experimental data published in the supplement of paper PMC12533247.

Tests used:
primary keratinocytes = experiment: % change in live cells vs DMSO control; higher = less cytotoxic; settings: time (h post treatment): 20
Protocol: (§1)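 Cytotoxicity in uninfected 2D primary donor keratinocytes (20 h post treatment) and fibroblasts (48 h post treatment), measured with NucSpot live/dead dyes on IncuCyte. Live cells are normalised to the 0.2% DMSO control and shown as % change. Three biological replicates for each of donors 3, 4 and 5.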

[1] = tested on: primary dermal fibroblasts; experiment: as above; settings: time (h post treatment): 48
Protocol: as §1

[2] = tested on: HSV-1 K26-GFP infected 3D skin equivalent; experiment: % activity on HSV-1 GFP signal (0 = infected DMSO control, -100 = uninfected control); higher = higher signal (negative = inhibition / toxicity); settings: time (h post infection): 48
Protocol: (§2)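 Triplicate dose-response (0.04 to 10 uM) of 11 top compounds in 3D bioprinted skin equivalents (submerged and ALI models) infected with GFP-HSV-1 K26 at MOI 0.1 and fixed at 48 hpi. GFP (virus) and tdTomato (fibroblast viability) signals are normalised to per-plate controls.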

[3] = tested on: HSV-1 K26-GFP infected primary human skin cells; experiment: % change of HSV-1 GFP signal vs untreated infected cells; higher = less antiviral inhibition
Protocol: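 2D primary donor-derived keratinocytes (read at 20 hpi) and donor-matched dermal fibroblasts (read at 48 hpi) infected with GFP-HSV-1 K26 at MOI 1 and treated 1 h later with compound dilutions. IncuCyte GFP integrated intensity is normalised by subtracting mock-infected wells and dividing by untreated infected wells, shown as % change (-100 = full inhibition).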

[4] = tested on: HSV-1 K26-GFP infected 3D skin equivalent; experiment: % change of tdTomato fibroblast signal relative to infected DMSO control; higher = higher signal (negative = inhibition / toxicity); settings: time (h post infection): 48
Protocol: as §2

Nc1ccn([C@@H]2O[C@H](CO)[C@@H](O)C2(F)F)c(=O)n1 [Gemcitabine]
Settings	% activity on HSV-1 GFP signal, [2] [%]	% change in live cells, [1] [%]	% change in live cells, primary keratinocytes [%]	% change of tdTomato fibroblast signal, [4] [%]
0.041152 µM, model: ALI	-11.7	–	–	-3.97
0.041152 µM, model: submerged	-9.74	–	–	-1.22
0.082305 µM, donor: 3	–	-21.3	-37.7	–
0.082305 µM, donor: 4	–	-9.33	-63	–
0.082305 µM, donor: 5	–	-5	-51.3	–
0.123457 µM, model: ALI	-37.9	–	–	-3.65
0.123457 µM, model: submerged	-26.5	–	–	-6.59
0.246914 µM, donor: 3	–	-23.7	-45.3	–
0.246914 µM, donor: 4	–	-9.33	-67.7	–
0.246914 µM, donor: 5	–	-11.3	-52.7	–
0.37037 µM, model: ALI	-102	–	–	-3.96
0.37037 µM, model: submerged	-92.4	–	–	-13.9
0.740741 µM, donor: 3	–	-27.3	-49.7	–
0.740741 µM, donor: 4	–	-15.7	-63.7	–
0.740741 µM, donor: 5	–	-21.3	-51.3	–
1.111111 µM, model: ALI	-106	–	–	-5.76
1.111111 µM, model: submerged	-97	–	–	-17.6
2.22222 µM, donor: 3	–	-30.3	-52.3	–
2.22222 µM, donor: 4	–	-11.7	-63.7	–
2.22222 µM, donor: 5	–	-26.3	-55.7	–
3.33333 µM, model: ALI	-99.4	–	–	-10.9
3.33333 µM, model: submerged	-99	–	–	-22.7
6.66667 µM, donor: 3	–	-33.3	-57.3	–
6.66667 µM, donor: 4	–	-9.67	-74.3	–
6.66667 µM, donor: 5	–	-34.3	-61	–
10 µM, model: ALI	-102	–	–	-5.25
10 µM, model: submerged	-99.8	–	–	-28.4
20 µM, donor: 3	–	-38	-75.7	–
20 µM, donor: 4	–	-18	-76.3	–
20 µM, donor: 5	–	-43.3	-70	–
60 µM, donor: 3	–	-43.7	-77.7	–
60 µM, donor: 4	–	-19.7	-87.3	–
60 µM, donor: 5	–	-52.7	-78.7	–

% change of HSV-1 GFP signal [%], [3]
Settings	0.001 µM	0.003 µM	0.0091 µM	0.0274 µM	0.0823 µM	0.2469 µM	0.7407 µM	2.2222 µM	6.6667 µM	20 µM
cell type: primary dermal fibroblasts, donor: 5, time (h post infection): 48	-5.06	-5.8	-2.35	-8.4	-70.4	-97.2	-99.78	-99.91	-99.93	-99.87
cell type: primary keratinocytes, donor: 3, time (h post infection): 20	29.8	37.4	36.1	17.1	-25.6	-75.6	-97.4	-98.37	-99	-99.06
cell type: primary keratinocytes, donor: 4, time (h post infection): 20	9.34	0.292	4.89	-17.4	-50.7	-86.4	-97.6	-99.732	-99.606	-99.72
cell type: primary keratinocytes, donor: 5, time (h post infection): 20	6.72	7.7	7.12	9.71	-23	-73.3	-94.7	-99	-99.39	-99.6

CC(C)c1cnn2c(NCc3ccccc3-n3cccn3)nc(OC3CCCNC3)nc12 (configuration not stated) [LDC4297]
Settings	% activity on HSV-1 GFP signal, [2] [%]	% change in live cells, [1] [%]	% change in live cells, primary keratinocytes [%]	% change of tdTomato fibroblast signal, [4] [%]
0.041152 µM, model: ALI	-23.3	–	–	-1.16
0.041152 µM, model: submerged	-10.7	–	–	7.31
0.082305 µM, donor: 3	–	-12.3	-12	–
0.082305 µM, donor: 4	–	-2.33	1	–
0.082305 µM, donor: 5	–	-0.667	-10.3	–
0.123457 µM, model: ALI	-67.2	–	–	-6.21
0.123457 µM, model: submerged	-16.1	–	–	-0.0281
0.246914 µM, donor: 3	–	-11.3	-41.3	–
0.246914 µM, donor: 4	–	-6.33	-17.7	–
0.246914 µM, donor: 5	–	-2.33	-17	–
0.37037 µM, model: ALI	-88.4	–	–	-7.32
0.37037 µM, model: submerged	-44.7	–	–	-5.4
0.740741 µM, donor: 3	–	-17.3	-36	–
0.740741 µM, donor: 4	–	-5.33	-37	–
0.740741 µM, donor: 5	–	-7	-27.7	–
1.111111 µM, model: ALI	-99.9	–	–	-9.38
1.111111 µM, model: submerged	-54.4	–	–	8.7
2.22222 µM, donor: 3	–	-22.3	-56.3	–
2.22222 µM, donor: 4	–	-5	-70	–
2.22222 µM, donor: 5	–	-16.3	-51.7	–
3.33333 µM, model: ALI	-105	–	–	-3.18
3.33333 µM, model: submerged	-74.5	–	–	7.79
6.66667 µM, donor: 3	–	-23	-75	–
6.66667 µM, donor: 4	–	-7.33	-98.67	–
6.66667 µM, donor: 5	–	-22.7	-94.33	–
10 µM, model: ALI	-99.9	–	–	1.92
10 µM, model: submerged	-94.8	–	–	-14.8
20 µM, donor: 3	–	-24.3	-80.3	–
20 µM, donor: 4	–	-3	-97.7	–
20 µM, donor: 5	–	-27.3	-95	–
60 µM, donor: 3	–	-30.3	-90	–
60 µM, donor: 4	–	0.667	-99.67	–
60 µM, donor: 5	–	-33	-95.3	–

% change of HSV-1 GFP signal [%], [3]
Settings	0.003 µM	0.0091 µM	0.0274 µM	0.0823 µM	0.2469 µM	0.7407 µM	2.2222 µM	6.6667 µM	20 µM	60 µM
cell type: primary dermal fibroblasts, donor: 5, time (h post infection): 48	-4.88	-5.58	-6.29	-17.5	-44.9	-60.2	-78.8	-97.65	-99.964	-99.913
cell type: primary keratinocytes, donor: 3, time (h post infection): 20	-0.466	9.74	-1.73	2.24	-13.6	-24.8	-42.6	-99.02	-99.87	-99.984
cell type: primary keratinocytes, donor: 4, time (h post infection): 20	-19.1	-22.2	-23.4	-17.1	-35.8	-61	-75.3	-99.7	-99.973	-100.04
cell type: primary keratinocytes, donor: 5, time (h post infection): 20	–	7.64	1.09	0.186	-10	-17.4	-37.8	-99.64	-99.946	-99.969

CC(=O)O[C@H]1C[C@H](O[C@H]2[C@@H](O)C[C@H](O[C@H]3[C@@H](O)C[C@H](O[C@H]4CC[C@@]5(C)[C@H](CC[C@@H]6[C@@H]5C[C@@H](O)[C@]5(C)[C@@H](C7=CC(=O)OC7)CC[C@]65O)C4)O[C@@H]3C)O[C@@H]2C)O[C@H](C)[C@H]1O[C@@H]1O[C@H](CO)[C@@H](O)[C@H](O)[C@H]1O [Lanatoside C]
Settings	% activity on HSV-1 GFP signal, [2] [%]	% change in live cells, [1] [%]	% change in live cells, primary keratinocytes [%]	% change of tdTomato fibroblast signal, [4] [%]
0.041152 µM, model: ALI	-34.1	–	–	2.37
0.041152 µM, model: submerged	-5.47	–	–	-1.16
0.082305 µM, donor: 3	–	-25.7	-27	–
0.082305 µM, donor: 4	–	-1.33	-18	–
0.082305 µM, donor: 5	–	-11.3	-3.67	–
0.123457 µM, model: ALI	-95.2	–	–	5.13
0.123457 µM, model: submerged	-72.7	–	–	-17.7
0.246914 µM, donor: 3	–	-39.7	-47	–
0.246914 µM, donor: 4	–	-20	-39.7	–
0.246914 µM, donor: 5	–	-32.7	-54.3	–
0.37037 µM, model: ALI	-105	–	–	-2.13
0.37037 µM, model: submerged	-99.6	–	–	-23.6
0.740741 µM, donor: 3	–	-48.3	-55.3	–
0.740741 µM, donor: 4	–	-28.3	-63	–
0.740741 µM, donor: 5	–	-31.7	-58.3	–
1.111111 µM, model: ALI	-104	–	–	0.581
1.111111 µM, model: submerged	-103	–	–	-37.1
2.22222 µM, donor: 3	–	-47	-53.7	–
2.22222 µM, donor: 4	–	-29.7	-64	–
2.22222 µM, donor: 5	–	-37.3	-59	–
3.33333 µM, model: ALI	-104	–	–	-5.14
3.33333 µM, model: submerged	-104	–	–	-52.9
6.66667 µM, donor: 3	–	-46	-58	–
6.66667 µM, donor: 4	–	-24.3	-71.3	–
6.66667 µM, donor: 5	–	-42	-56.3	–
10 µM, model: ALI	-99.5	–	–	-4.98
10 µM, model: submerged	-107	–	–	-56.04
20 µM, donor: 3	–	-43.3	-67.7	–
20 µM, donor: 4	–	-22.7	-76.3	–
20 µM, donor: 5	–	-46.7	-57.3	–
60 µM, donor: 3	–	-49.3	-71.3	–
60 µM, donor: 4	–	-23.3	-76.3	–
60 µM, donor: 5	–	-58.7	-62.3	–

% change of HSV-1 GFP signal [%], [3]
Settings	0.001 µM	0.003 µM	0.0091 µM	0.0274 µM	0.0823 µM	0.2469 µM	0.7407 µM	2.2222 µM	6.6667 µM	20 µM
cell type: primary dermal fibroblasts, donor: 5, time (h post infection): 48	-2.98	-9.39	-4.44	-5.88	-21.6	-99.19	-99.81	-99.972	-99.993	-99.985
cell type: primary keratinocytes, donor: 3, time (h post infection): 20	4.49	6.12	-2.17	7.86	-16.9	-96	-99.91	-99.948	-99.8	-99.941
cell type: primary keratinocytes, donor: 4, time (h post infection): 20	-0.192	-0.172	-18.5	-9.65	-38.4	-79.3	-100.1	-100.1	-100.1	-100.07
cell type: primary keratinocytes, donor: 5, time (h post infection): 20	12.3	12.4	10	-3.35	-66	-99.66	-99.948	-99.893	-99.85	-99.904
